Assay [1] concerns the target 262 bp DNA fragment (MS2F or MS2R) of MS2 plasmid. The assay can be described thus: DNase I footprinting on MS2 DNA fragment. The format is binding. The procedure:
The sequence selectivity of the six PBD-pyrrole conjugates (21, 23, 25, 27, 29) was evaluated by standard DNA footprinting on a fragment of MS2 as follows, in accordance with the technique described in Martin, C., et al., (Martin, C., et al., Biochemistry, 44(11), 4135-4147 (2005))
Forward (5′-[…]-3′) or reverse (5′-[…]-3′) primer was 5′-end labelled with ^32P by T4 polynucleotide kinase. Labelling mixture contained primer (5 pmol; Sigma-Genosys), 10× kinase buffer (1 μl; Promega), (γ-^32P)-ATP (2μ of 10 μCi/μl, 6000 Ci/mmol; Perkin Elmer Life Sciences), and T4 polynucleotide kinase (10 U; Promega) in a 10 μl final volume. Labelling mix was incubated at 37° C. for 30 minutes followed by inactivation of the kinase at 70° C. for 10 minutes. A 262 bp DNA fragment (MS2F or MS2R) was amplified from the MS2 plasmid using PCR with either labelled forward or reverse primer and the unlabelled primer as required. Reactions were comprised of labelled primer mix (10 μl), 10×PCR buffer (5 μl; Sigma), dNTPs (5 μl; 2.5 mM each of A, C, G and T, Amersham Pharmacia), unlabelled primer as required ([…]), MS2 plasmid template DNA (10 ng) and Taq DNA polymerase (5 U; Sigma) in a 50 μl final volume. Radiolabelled 262-mer was purified by non-denaturing polyacrylamide gel electrophoresis, elution, filtration and EtOH precipitation and was resuspended in a solution of Tris-HCl (10 mM) pH 7.4/NaCl (10 mM) to yield an activity of 200 counts per second per 5 μl when held up, in a pipette tip, to a capped Morgan series 900 mini-monitor.
For DNase I footprinting radiolabelled 262-mer (2 μl) was incubated overnight (16-18 h) with drug solution (388 μl) or in an aqueous buffer [HEPES (20 mM) pH 7.9, NaCl (50 mM), MgCl2 (1 mM), DTT (5 mM), 10% glycerol] in control reactions. Enzymatic cleavage was initiated by addition of DNase I solution (10 μl of 0.05 U/ml; Sigma) in aqueous NaCl (200 mM), MgCl2 (20 mM) and MnCl2 (20 mM) and halted with stop solution [40 μl of NaCl (2.25 M), EDTA (150 mM) pH 8.0, 0.57 μg/μl glycogen (0.57 μg/μl; Roche), poly(dl-dC).poly(dl-dC) DNA (19.3 ng/μl; Amersham Pharmacia)]. From this mixture, digested DNA fragments were prepared for electrophoresis following the protocol of Trauger & Dervan, and were loaded on to a preheated 8% denaturing polyacrylamide gel. Electrophoresis in 1×TBE buffer was allowed to proceed for 100 min at 70 W (1600-2000 V). The gel was the fixed in acetic acid (10% v/v) and methanol (10% v/v) for 15 minutes followed by being blotted onto Whatman 3 mM paper and vacuum-dried at 80° C. for 45 minutes.
Dried gels were stored at room temperature in phosphor storage screens (Molecular Dynamics) for a minimum period of 12 h. Data were collected from exposed screens using a Molecular Dynamics 425E Phosphorlmager and transferred to ImageQuant v1.2 software (Molecular Dynamics) for analysis. Data were expressed as the differential cleavage between control and sample lanes. Peaks were integrated and differential cleavage calculated as ln(fd)−ln(fc); (fd is the fractional cleavage at any particular bond in the presence of drug and fc is the fractional cleavage of the same bond in the control). Maxam-Gilbert G+A marker lanes were prepared in the usual fashion.
The vast majority of footprint sites are common features in the binding profiles of all six conjugates, with only a small number of sites being footprinted by a subset of the family. Even more unexpectedly, no site is footprinted by only one molecule (in fact, the fewest number of conjugates that bind at any single site is four). The differential cleavage plot provides footprinting profiles at a supramaximal concentration colour-coded for each conjugate which illustrates a striking degree of overlap. Although there is no conspicuous change in footprinting patterns as the number of pyrroles units in each conjugate increases, there are changes in two other features, namely, the apparent binding affinity and the width of the footprinted site. […]

In assay [2] the test system is K562 human chronic myeloid leukaemia cells. Briefly: In vitro cytotoxicity, MTT assay. The format is cell-based. Conditions: K562, 1 hour drug exposure, MTT after 4 days. How it is done: K562 human chronic myeloid leukaemia cells were maintained in RPM1 1640 medium supplemented with 10% fetal calf serum and 2 mM glutamine at 37° C. in a humidified atmosphere containing 5% CO2 and were incubated with a specified dose of drug for 1 hour at 37° C. in the dark. The incubation was terminated by centrifugation (5 min, 300 g) and the cells were washed once with drug-free medium. Following the appropriate drug treatment, the cells were transferred to 96-well microtiter plates (10^4 cells per well, 8 wells per sample). Plates were then kept in the dark at 37° C. in a humidified atmosphere containing 5% CO2. The assay is based on the ability of viable cells to reduce a yellow soluble tetrazolium salt, 3-(4,5-dimethylthiazol-2-yl)-2,5-diphenyl-2H-tetrazolium bromide (MTT, Aldrich-Sigma), to an insoluble purple formazan precipitate. Following incubation of the plates for 4 days (to allow control cells to increase in number by approximately 10 fold), 20 μL of MTT solution (5 mg/mL in phosphate-buffered saline) was added to each well and the plates further incubated for 5 hours. The plates were then centrifuged for 5 minutes at 300 g and the bulk of the medium pipetted from the cell pellet leaving 10-20 μL per well. DMSO (200 μL) was added to each well and the samples agitated to ensure complete mixing. The optical density was then read at a wavelength of 550 nm on a Titertek Multiscan ELISA plate reader, and a dose-response curve was constructed.
(In general: Formazan colour is commonly taken as a measure of viable cells.)

The subject of assay [3] is calf thymus DNA (CT-DNA). The assay can be described thus: DNA thermal denaturation (melting) studies. It counts as binding. Particulars: CT-DNA 100 μM DNAp, compound 20 μM, 37 °C; for Induced ΔTm after incubation 0 hours: pH 7.00, 0 hours; for Induced ΔTm after incubation 4 hours: pH 7.00, 4 hours; for Induced ΔTm after incubation 18 hours: pH 7.00, 18 hours. How it is done: The PBD agents were subjected to DNA thermal melting (denaturation) studies (Gregson, S. J., et al., Journal of Medicinal Chemistry, 44(5), 737-748 (2001); Jones, G. B., et al., Anti-Cancer Drug Design, 5(3), 249-264 (1990); McConnaughie, A. W. and; Jenkins, T. C. Journal of Medicinal Chemistry, 38(18), 3488-3501 (1995)) using calf thymus DNA (CT-DNA, type-1, highly polymerized sodium salt; 42% G+C [Sigma]) at a fixed 100 μM (DNAp=50 μM bp) concentration, determined using an extinction coefficient of 6600 (M phosphate)^−1 cm^−1 at 260 nm (Manzini, G., et al., Nucleic Acids Research, 11(24), 8861-8876 (1983)). Solutions were prepared in pH 7.00±0.01 aqueous buffer containing 10 mM NaH2PO4/Na2HPO4 and 1 mM EDTA. Working solutions containing CT-DNA and the test compound (20 μM) were incubated at 37.0±0.1° C. for 0 to 18 hours using an external water bath. Samples were monitored at 260 nm using a Varian-Cary 400 Bio spectrophotometer fitted with a Peltier heating accessory. Heating was applied at a rate of 1° C./min in the 45 to 98° C. temperature range, with optical and temperature data sampling at 200 ms intervals. A separate experiment was carried out using buffer alone, and this baseline was subtracted from each DNA melting curve before data treatment. Optical data were imported into the Origin 5 program (MicroCal Inc., Northampton, Mass.) for analysis. DNA helix→coil transition temperatures (Tm) were determined at the midpoint of the normalized melting profiles using a published analytical procedure (Jones, G. B., et al., Anti-Cancer Drug Design, 5(3), 249-264 (1990)). Results are given in table 1 as the mean±standard deviation from at least three determinations. Ligand-induced alterations in DNA melting behaviour (ΔTm) are given by ΔTm=Tm(DNA+ligand)−Tm(DNA), where the Tm value determined for free CT-DNA is 67.82±0.06° C. (averaged from >90 runs). All PBD compounds were dissolved in HPLC-grade MeOH to give working solutions containing ≦0.6% v/v MeOH; Tm results were corrected for the effects of MeOH co-solvent by using a linear correction term.
The above method was also carried out on the compounds of example 2, with all compounds being incubated for up to 72 hours.

The subject of assay [4] is 170 bp sequence of the human Topo-IIa promoter. The assay can be described thus: DNase I footprinting on Topo-IIa promoter (ICB1, ICB2 sites). The format is binding. The procedure:
In a similar manner to Example 4, the affinity and sequence selectivity of certain compounds of examples 1 and 2 was evaluated by standard DNA footprinting on a 170 bp sequence of the human Topo-IIa promoter, in accordance with the technique described in Martin, C., et al.
Selected results are shown in FIG. 9, wherein the concentrations of the lanes were 0, 1.6, 8, 40, 200, 1000, 5000 and 25000 nM in each case.
The footprinting results allowed the identification of compounds that could potentially disrupt transcription factor binding at the ICB1 and ICB2 sites. […] These compounds are detailed below in table 3, showing the concentrations (μM) at which the PBD-heterocycle conjugates bind at ICB1 and ICB2.

The subject of assay [5] is NF-Y binding at ICB1 of Topoisomerase IIα promoter. Briefly: NF-Y gel shift assay (EMSA) at ICB1. (In general: In EMSA bound probe runs differently from free probe, usually more slowly.)
The test system of assay [6] is NF-Y binding at ICB2 of Topoisomerase IIα promoter. The assay can be described thus: NF-Y gel shift assay (EMSA) at ICB2.
Setting [7] is: read-out: DNase IC50 (apparent binding affinity; 50% inhibition of DNase I-mediated cleavage), estimated by eye, site 5′-62CAATACACA70-3′.

Each structure is given as a SMILES string. Read-outs that look alike come from different tables or passages of the source. Marks after values point to notes of the source that are not given here.

Usually IC50 stands for the midpoint of a concentration-inhibition curve. With `COC(=O)c1cc(NC(=O)CCCOc2cc3c(cc2OC)C(=O)N2CCC[C@H]2C=N3)cn1C` [Compound 21, (11aS) Methyl 4-[4-(7-methoxy-5-oxo-2,3,5,11a-tetrahydro-5H-pyrrolo[2,1-c][1,4]benzodiazepine-8-yloxy)-butyrylamino]-1-methyl-1H-pyrrole-2-carboxylate], the concentration for half-maximal inhibition (IC50) in assay [1] (estimated by eye from footprint gel, read-out: DNase IC50 (apparent binding affinity)) was ≥ 10 µM. The molecule also came in with a half-maximal inhibitory concentration (IC50) in assay [2] (Homo sapiens) of 0.051 µM. In addition, in assay [3], the “Induced ΔTm after incubation 0 hours” value is 6.5 °C, the “Induced ΔTm after incubation 4 hours” value was 7.9 °C and the “Induced ΔTm after incubation 18 hours” value is 8.1 °C.
With `COC(=O)c1cc(NC(=O)c2cc(NC(=O)c3cc(NC(=O)CCCOc4cc5c(cc4OC)C(=O)N4CCC[C@H]4C=N5)cn3C)cn2C)cn1C` [Compound 25, (11aS) Methyl 4-{[4-({4-[4-(7-Methoxy-6-oxo-2,3,5,11a-tetrahydro-5H-pyrrolo[2,1-c][1,4]benzodiazepine-8-yloxy)-butyrylamino]-1-methyl-1H-pyrrole-2-carbonyl]-amino)-1-methyl-1H-pyrrole-2-carbonyl]-amino}-1-methyl-1H-pyrrole-2-carboxylate], in assay [1] (setting [7]), the half-maximal inhibitory concentration (IC50) was 0.03 to 0.1 µM. This molecule registered an IC50 in assay [2] of 0.041 µM. Besides, in assay [3], the “Induced ΔTm after incubation 0 hours” value came to 17.3 °C, the “Induced ΔTm after incubation 4 hours” value was determined as 19.6 °C and the “Induced ΔTm after incubation 18 hours” value amounted to 21.2 °C.
On the same counts, the results for `COC(=O)c1cc(NC(=O)c2cc(NC(=O)c3cc(NC(=O)c4cc(NC(=O)CCCOc5cc6c(cc5OC)C(=O)N5CCC[C@H]5C=N6)cn4C)cn3C)cn2C)cn1C` [Compound 27, (11aS) Methyl 4-[(4-{[4-({4-[4-(7-Methoxy-5-oxo-2,3,5,11a-tetrahydro-5H-pyrrolo[2,1-c][1,4]benzodiazepine-8-yloxy)-butyrylamino]-1-methyl-1H-pyrrole-2-carbonyl]-amino)-1-methyl-1H-pyrrole-2-carbonyl]-amino}-1-methyl-1H-pyrrole-2-carbonyl)-amino]-1-methyl-1H-pyrrole-2-carboxylate] are ~0.03 µM, 0.047 µM, 16.0 °C, 18.5 °C and 19.0^y ° C.
As to `COC(=O)c1cc(NC(=O)c2cc(NC(=O)c3nc(NC(=O)CCCOc4cc5c(cc4OC)C(=O)N4CCC[C@H]4C=N5)cn3C)cn2C)cn1C` [Compound 67], in assay [4] (ICB1 site), the “Concentration at which DNA binding is observed, ICB1” value was 5 µM. In addition, the “Concentration at which DNA binding is observed, ICB2” value in assay [4] (ICB2 site) amounted to 1 µM. The “Lowest concentration at which NF-Y binding inhibition was observed” value in assay [5] came out at 50 µM. For the same molecule, in assay [3], the “Induced ΔTm after incubation 0 hours” value turned out to be 19.1 °C, the “Induced ΔTm after incubation 4 hours” value is 19.8 °C and the “Induced ΔTm after incubation 18 hours” value was found to be 21.1 °C. Further, the “Induced ΔTm after incubation 72 hours” value in assay [3] (pH 7.00, 72 hours) amounted to 21.6 °C. For the same molecule, the “Lowest concentration at which NF-Y binding inhibition was observed” value in assay [6] turned out to be 5 µM.

The values above are taken from US8637664B2, “Alkyl 4- [4- (5-oxo-2,3,5, 11a-tetrahydo-5H-pyrrolo [2, 1-c] [1,4] benzodiazepine-8-yloxy)-butyrylamino]-1H-pyrrole-2-carboxylate derivatives and related compounds for the treatment of a proliferative disease” (Spirogen SARL, priority 2005, dated 2014).
